Data: publication PMC9304199, “A small molecule CFTR potentiator restores ATP‐dependent channel gating to the cystic fibrosis mutant G551D‐CFTR” (British Journal of Pharmacology, 2022)

Biological target: T1, wild‐type CFTR (Homo sapiens, UniProt P13569)
T1 construct: expressed in transfected cells
Test: Single-channel recording in excised inside-out membrane patches, wild-type CFTR
Assay type: biochemical
Conditions: ATP 0.3 mM; for maximum Po (Po max) / EC50: PKA 75 nM, ~23°C; for EC50: read-out: EC50 for potentiation of Po
Description: For CFTR studies using automated electrophysiology and single-channel recording, we used baby hamster kidney (BHK) cells (RRID:CVCL_1915) and human embryonic kidney (HEK) 293 cells (RRID:CVCL_0045) stably expressing wild-type human CFTR and the CFTR variants F508del- and […] et al., [2002]; Xu et al., [2014]). […] HEK cells expressing CFTR variants were generated using the Flp-InTM system as described above for F508del- and G551D-CFTR-expressing FRT cells. They were cultured in Dulbecco's modified Eagle's medium (glucose, 1.5 g·L^-1; sodium pyruvate, 110 mg·L^-1) supplemented with 10% FBS (PAA Laboratories), GlutaMAXTM and hygromycin-B (150 μg·ml^-1; InvitrogenTM, Thermo Fisher Scientific) at 37°C in a humidified atmosphere with 5% CO2. Prior to study, F508del-CFTR expressed in HEK cells was trafficked to the plasma membrane by low temperature incubation (27°C for 24-72 h). The single-channel behaviour of human CFTR in excised membrane patches from different mammalian cell lines heterologously expressing CFTR is equivalent (wild-type CFTR, Chen et al., [2009]; F508del-CFTR, Bose et al., [2019]; and G551D-CFTR, J Liu, Y Wang, Z Cai, and DN Sheppard, unpublished observations). CFTR Cl^- channels were recorded in excised inside-out membrane patches using an Axopatch 200B patch-clamp amplifier and pCLAMP software (version 10.3) (RRID:SCR_011323) (both from Molecular Devices, San Jose, CA, USA) (Sheppard & Robinson, [1997]). […] Within 2 min after membrane patch excision, we added the catalytic subunit of protein kinase A (PKA; 75 nM) and ATP (1 mM) to the intracellular solution to activate CFTR Cl^- channels. To minimise channel rundown, we added PKA and millimolar concentrations of ATP to all intracellular solutions and clamped voltage at -50 mV. […] We reduced the ATP concentration when testing CFTR potentiators on wild-type CFTR to observe their effects more clearly. […] Instead, specific interventions with CFTR potentiators were compared with the pre-intervention control period made with the same concentration of ATP and PKA, but without test compounds. […] F508del-CFTR, n ≤ 4; G551D-CFTR, n ≤ 5). To determine channel number, we used the maximum number of simultaneous channel openings observed during an experiment (Cai et al., [2006]). To minimise errors, we used experimental conditions that robustly potentiate channel activity and verified that recordings were of sufficient length to ascertain the correct number of channels ([…] et al., [1994]). […] Despite our precautions, we cannot exclude the possibility of unobserved G551D-CFTR Cl^- channels in excised membrane patches causing Po values for G551D-CFTR to be […]. Therefore, Po values for G551D-CFTR are expressed as apparent Po (Po(app)) values. Single-channel currents were directly acquired to a computer hard disc after filtering at a corner frequency (f c) of 500 Hz with an eight-pole Bessel filter (model LHBF-48×; npi electronic GmbH, Tamm, Germany) and digitising at a sampling rate of 5 kHz using a Digidata 1440A interface (Molecular Devices) and pCLAMP software. […] The mean interburst interval (TIBI) was calculated using the equation (Cai et al., [2006]): (1) Po=Tb/TMBD+TIBI, where T b = (mean burst duration) × (open probability within a burst). Mean burst duration (T MBD) and open probability within a burst (Po[burst]) were determined directly from experimental data using pCLAMP software. […]

T1 sequence (P13569 whole entry): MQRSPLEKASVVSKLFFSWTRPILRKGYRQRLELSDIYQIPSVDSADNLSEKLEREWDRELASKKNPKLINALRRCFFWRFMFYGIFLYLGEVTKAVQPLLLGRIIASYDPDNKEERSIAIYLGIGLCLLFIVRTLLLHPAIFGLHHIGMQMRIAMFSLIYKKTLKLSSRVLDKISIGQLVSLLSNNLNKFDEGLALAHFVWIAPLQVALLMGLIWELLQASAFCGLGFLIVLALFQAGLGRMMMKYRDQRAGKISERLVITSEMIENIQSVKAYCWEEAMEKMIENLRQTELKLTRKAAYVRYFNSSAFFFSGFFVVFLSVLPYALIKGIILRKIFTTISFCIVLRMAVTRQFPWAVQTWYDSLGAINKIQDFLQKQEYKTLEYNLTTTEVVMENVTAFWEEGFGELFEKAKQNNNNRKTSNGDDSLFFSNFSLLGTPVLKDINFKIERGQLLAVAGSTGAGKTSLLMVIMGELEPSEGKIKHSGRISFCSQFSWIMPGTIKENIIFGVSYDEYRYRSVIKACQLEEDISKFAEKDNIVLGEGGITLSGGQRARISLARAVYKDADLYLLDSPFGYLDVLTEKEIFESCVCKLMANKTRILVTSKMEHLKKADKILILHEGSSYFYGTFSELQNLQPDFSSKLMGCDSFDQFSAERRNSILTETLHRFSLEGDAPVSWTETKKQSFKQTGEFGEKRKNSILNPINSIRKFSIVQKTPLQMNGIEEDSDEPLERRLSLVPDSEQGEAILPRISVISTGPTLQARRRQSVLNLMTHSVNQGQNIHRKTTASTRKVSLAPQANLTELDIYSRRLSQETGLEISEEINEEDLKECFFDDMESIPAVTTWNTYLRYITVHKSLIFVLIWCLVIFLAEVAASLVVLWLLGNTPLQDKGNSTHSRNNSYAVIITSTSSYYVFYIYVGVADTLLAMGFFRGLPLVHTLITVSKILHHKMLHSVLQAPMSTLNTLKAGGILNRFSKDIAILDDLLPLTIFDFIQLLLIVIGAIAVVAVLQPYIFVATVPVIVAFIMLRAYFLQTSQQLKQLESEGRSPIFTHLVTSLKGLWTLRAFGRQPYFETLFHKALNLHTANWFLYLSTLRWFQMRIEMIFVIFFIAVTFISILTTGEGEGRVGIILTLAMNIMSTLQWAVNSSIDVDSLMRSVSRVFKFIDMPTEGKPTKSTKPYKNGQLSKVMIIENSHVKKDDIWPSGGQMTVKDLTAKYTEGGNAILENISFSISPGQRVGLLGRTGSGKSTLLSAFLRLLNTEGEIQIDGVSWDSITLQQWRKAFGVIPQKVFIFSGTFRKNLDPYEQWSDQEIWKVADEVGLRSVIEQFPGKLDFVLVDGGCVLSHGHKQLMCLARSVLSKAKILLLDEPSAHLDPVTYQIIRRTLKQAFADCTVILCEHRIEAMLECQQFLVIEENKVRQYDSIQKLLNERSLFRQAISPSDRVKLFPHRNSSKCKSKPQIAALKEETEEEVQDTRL

Structure (SMILES)	greater potency than CP‐628006	maximum Po (Po max)	EC50
CC(C)(C)c1cc(C(C)(C)C)c(NC(=O)c2c[nH]c3ccccc3c2=O)cc1O [ivacaftor, reference compound]	100 fold	0.71	0.21 nM
Cc1ncccc1CNC(=O)c1ccc2c(c1)CC[C@H]1C[C@](O)(CCC(F)(F)F)CC[C@]21Cc1ccccc1 (racemic) [CP‐628006, rac‐(4bR,7R,8aS)‐4b‐benzyl‐7‐hydroxy‐N‐((2‐methylpyridin‐3‐yl)methyl)‐7‐(3,3,3‐trifluoropropyl)‐4b,5,6,7,8,8a,9,10‐octahydrophenanthrene‐2‐carboxamide]		0.77	24 nM
